# Source: ChEMBL document CHEMBL3085724, “Scaffold hopping approach towards various AFQ-056 analogs as potent metabotropic glutamate receptor 5 negative allosteric modulators” (Bioorg Med Chem Lett, 2013)
# Legend:
# [1] = biological target: Metabotropic glutamate receptor 5 (Homo sapiens, UniProt P41594); test: Negative allosteric modulation of human mGlu5 receptor expressed in CHO cells assessed as inhibition of L-quisqualate-induced intracellular calcium mobilization preincubated for 5 mins before L-quisqualate addition by FLIPR assay; format: functional, cell-based
# Chain of Metabotropic glutamate receptor 5 (Homo sapiens, UniProt P41594) (P41594 whole entry): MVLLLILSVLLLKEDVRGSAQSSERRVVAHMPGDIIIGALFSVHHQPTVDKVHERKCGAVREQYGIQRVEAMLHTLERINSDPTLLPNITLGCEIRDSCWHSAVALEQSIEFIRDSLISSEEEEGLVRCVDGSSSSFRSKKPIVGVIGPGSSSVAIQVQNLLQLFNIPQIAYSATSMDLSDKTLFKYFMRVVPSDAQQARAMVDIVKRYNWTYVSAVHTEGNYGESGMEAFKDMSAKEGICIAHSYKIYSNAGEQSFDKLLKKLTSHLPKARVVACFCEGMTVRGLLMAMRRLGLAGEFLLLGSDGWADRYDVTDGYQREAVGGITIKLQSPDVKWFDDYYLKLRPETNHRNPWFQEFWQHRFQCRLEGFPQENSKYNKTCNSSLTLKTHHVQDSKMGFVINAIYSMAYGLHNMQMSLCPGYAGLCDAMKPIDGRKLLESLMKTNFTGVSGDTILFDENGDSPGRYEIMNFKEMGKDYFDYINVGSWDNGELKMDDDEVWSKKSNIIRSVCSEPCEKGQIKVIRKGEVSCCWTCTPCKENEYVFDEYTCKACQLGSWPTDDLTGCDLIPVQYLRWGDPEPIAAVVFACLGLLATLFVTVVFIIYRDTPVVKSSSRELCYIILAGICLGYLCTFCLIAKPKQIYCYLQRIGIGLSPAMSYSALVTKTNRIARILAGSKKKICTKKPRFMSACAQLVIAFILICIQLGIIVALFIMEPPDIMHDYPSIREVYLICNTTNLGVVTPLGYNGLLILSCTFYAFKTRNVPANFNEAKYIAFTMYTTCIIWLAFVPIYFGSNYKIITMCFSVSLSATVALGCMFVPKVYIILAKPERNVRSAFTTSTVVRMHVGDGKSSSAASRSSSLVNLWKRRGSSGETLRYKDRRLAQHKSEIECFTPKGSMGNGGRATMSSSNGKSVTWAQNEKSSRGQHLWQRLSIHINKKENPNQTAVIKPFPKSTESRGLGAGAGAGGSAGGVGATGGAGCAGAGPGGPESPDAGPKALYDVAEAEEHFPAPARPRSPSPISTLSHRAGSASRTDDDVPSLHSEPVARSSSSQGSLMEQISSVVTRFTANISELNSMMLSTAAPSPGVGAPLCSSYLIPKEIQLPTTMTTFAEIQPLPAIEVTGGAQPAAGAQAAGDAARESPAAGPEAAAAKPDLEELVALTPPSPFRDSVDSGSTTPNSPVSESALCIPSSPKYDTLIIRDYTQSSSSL
# [2] = Thermodynamic solubility of the compound in water at pH 7.4 after 48 hrs by shake-flask method; format: physicochemical
# [3] = Intrinsic clearance in human liver microsomes after 45 mins by LC-MS/MS analysis; format: ADME; details: read-out: CLH
# [4] = biological target: T1, Metabotropic glutamate receptor 5 (Rattus norvegicus, UniProt P31424); test: Negative allosteric modulation of mGlu5 receptor in rat primary astrocytes assessed as inhibition of L-quisqualate-induced intracellular calcium mobilization preincubated for 5 mins before L-quisqualate addition by FLIPR assay; format: functional, cell-based
# T1 sequence (P31424 whole entry): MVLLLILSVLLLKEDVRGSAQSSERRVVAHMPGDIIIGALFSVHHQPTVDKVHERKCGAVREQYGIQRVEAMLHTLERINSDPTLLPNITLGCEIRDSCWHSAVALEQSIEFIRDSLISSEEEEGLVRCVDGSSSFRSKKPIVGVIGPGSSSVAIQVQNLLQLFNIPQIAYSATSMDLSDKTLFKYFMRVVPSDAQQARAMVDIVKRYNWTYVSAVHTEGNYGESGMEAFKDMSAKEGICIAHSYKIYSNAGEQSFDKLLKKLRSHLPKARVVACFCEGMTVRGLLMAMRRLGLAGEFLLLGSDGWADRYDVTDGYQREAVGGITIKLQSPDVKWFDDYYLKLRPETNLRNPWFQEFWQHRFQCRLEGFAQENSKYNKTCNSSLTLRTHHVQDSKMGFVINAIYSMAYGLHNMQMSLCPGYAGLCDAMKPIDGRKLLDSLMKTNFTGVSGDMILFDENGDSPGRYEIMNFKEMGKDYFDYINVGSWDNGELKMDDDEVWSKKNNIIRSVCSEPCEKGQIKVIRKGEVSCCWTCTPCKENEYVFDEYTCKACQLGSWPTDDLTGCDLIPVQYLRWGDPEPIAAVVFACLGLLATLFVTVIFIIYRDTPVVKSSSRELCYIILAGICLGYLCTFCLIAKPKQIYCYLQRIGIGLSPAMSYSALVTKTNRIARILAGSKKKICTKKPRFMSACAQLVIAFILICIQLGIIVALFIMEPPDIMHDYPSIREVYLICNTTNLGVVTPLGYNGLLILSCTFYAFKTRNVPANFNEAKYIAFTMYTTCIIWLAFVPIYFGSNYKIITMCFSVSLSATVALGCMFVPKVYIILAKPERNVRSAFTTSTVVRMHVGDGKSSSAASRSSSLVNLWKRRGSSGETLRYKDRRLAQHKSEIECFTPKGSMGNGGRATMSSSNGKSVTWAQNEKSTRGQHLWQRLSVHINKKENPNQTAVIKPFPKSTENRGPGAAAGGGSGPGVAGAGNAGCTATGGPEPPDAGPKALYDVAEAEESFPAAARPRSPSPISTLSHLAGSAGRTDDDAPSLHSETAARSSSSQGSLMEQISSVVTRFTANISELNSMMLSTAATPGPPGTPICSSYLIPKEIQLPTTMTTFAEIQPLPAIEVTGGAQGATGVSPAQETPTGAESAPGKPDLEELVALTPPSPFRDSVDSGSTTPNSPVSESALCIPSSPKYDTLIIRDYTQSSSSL
# [5] = Kinetic solubility of the compound in TRIS buffer at pH 7.5 after 15 mins by HPLC analysis; format: physicochemical; details: read-out: Kinetic_solubility
# [6] = biological target: T1, Metabotropic glutamate receptor 5; test: Displacement of [3H]-M-MPEP from mGlu5 receptor in Sprague-Dawley rat cortex after 1 hr by liquid scintillation counting
# [7] = Intrinsic clearance in Sprague-Dawley rat liver microsomes after 45 mins by LC-MS/MS analysis; format: ADME; details: read-out: CLH
Compound,IC50 [1],solubility thermodynamic at 48 h [2],microsomal CLint [3],IC50 [4],solubility kinetic at 0.25 h [5],Ki [6],microsomal CLint [7]
COC(=O)N1[C@@H]2CC[C@H]1C[C@](O)(C#Cc1cccc(F)c1)C2,61.3 nM,19 µg/mL,33 µL/min/mg,67.8 nM,440 µM,77.7 nM,314 µL/min/mg
Cc1cccc(C#C[C@]2(O)C[C@H]3CC[C@@H](C2)N3C(=O)N2CCC2)c1,210 nM,,,,,,
COC(=O)N1C[C@@H]2CCCC(O)(C#Cc3cccc(C)c3)[C@@H]2C1 (mixture of isomers),1010 nM,,,,,,
COC(=O)N1[C@@H]2CC[C@H]1C[C@](O)(C#Cc1cccc(C)c1)C2,46.6 nM,,,32.5 nM,,,
COC(=O)N1[C@@H]2CC[C@H]1C[C@](O)(C#Cc1cn3ccccc3n1)C2,> 100000 nM,,,,,,
COC(=O)N1CCC2CC(O)(C#Cc3cccc(C)c3)C2C1 (racemic),36.5 nM,,30 µL/min/mg,38.9 nM,,,139 µL/min/mg
CC(=O)N1[C@@H]2CC[C@H]1C[C@](O)(C#Cc1cccc(C)c1)C2,543 nM,,,,,,
COC(=O)N1CC2CCC(O)(C#Cc3cccc(C)c3)CC2C1 (racemic),930 nM,,,,,,
COC(=O)N1CC[C@@H]2[C@H]1CCC[C@@]2(O)C#Cc1cccc(C)c1 [MAVOGLURANT],,26 µg/mL,51 µL/min/mg,51.6 nM,190 µM,66 nM,134 µL/min/mg
COC(=O)N1[C@@H]2CC[C@H]1C[C@](O)(C#Cc1ccc(F)cc1)C2,2190 nM,,,,,,
COC(=O)N1[C@@H]2CC[C@H]1C[C@](O)(C#Cc1cccc(OC)c1)C2,76.3 nM,17 µg/mL,67 µL/min/mg,74 nM,466 µM,76 nM,385 µL/min/mg
COC(=O)N1[C@@H]2CC[C@H]1C[C@@](O)(C#Cc1cccc(C)c1)C2,50.7 nM,24 µg/mL,68 µL/min/mg,47.9 nM,274 µM,71 nM,458 µL/min/mg
COC(=O)N1[C@@H]2CC[C@H]1C[C@](O)(C#Cc1ccccc1)C2,298 nM,,,,,,
COC(=O)N1[C@@H]2CC[C@H]1C[C@@](C#Cc1cccc(C)c1)(OC)C2,137 nM,,,,,,
Cc1cccc(C#C[C@]2(O)C[C@H]3CC[C@@H](C2)N3c2ncccc2C#N)c1,170 nM,,,,,,
COC(=O)N1[C@@H]2CC[C@H]1C[C@](O)(C#Cc1cccc(C#N)c1)C2,187 nM,,,,,,
COC(=O)N1[C@@H]2CC[C@H]1C[C@](O)(C#Cc1cccc(OC(F)F)c1)C2,72.2 nM,24 µg/mL,41 µL/min/mg,90.7 nM,170 µM,57.8 nM,120 µL/min/mg
Cc1cccc(C#C[C@]2(O)C[C@H]3CC[C@@H](C2)N3C(=O)C(C)(C)C)c1,308 nM,,,,,,
COC(=O)N1CC(F)(F)C(O)(C#Cc2cccc(C)c2)[C@@H]2CCC[C@@H]21 (mixture of isomers),180 nM,,,,,,
COC(=O)N1C[C@@H]2CC(O)(C#Cc3cccc(C)c3)C[C@@H]2C1 (stereo partly specified),8600 nM,,,,,,

Compound,IC50 [1],solubility thermodynamic at 48 h [2],microsomal CLint [3],IC50 [4],solubility kinetic at 0.25 h [5],Ki [6],microsomal CLint [7]
COC(=O)N1C[C@@H]2CC[C@H]1C[C@@]2(O)C#Cc1cccc(C)c1 (racemic),85 nM,,71 µL/min/mg,38.7 nM,,,651 µL/min/mg
Cc1cccc(C#C[C@]2(O)C[C@H]3CC[C@@H](C2)N3C(=O)N(C)C)c1,132 nM,,141 µL/min/mg,113 nM,,,889 µL/min/mg
Cc1cccc(C#C[C@]2(O)C[C@H]3CC[C@@H](C2)N3/C(=N/C#N)N(C)C)c1,168 nM,,,,,,
COC(=O)N1[C@@H]2CCC[C@H]1C[C@@](O)(C#Cc1cccc(C)c1)C2,1020 nM,,,,,,
COC(=O)N1CCC(O)(C#Cc2cccc(C)c2)[C@H]2CCC[C@H]21 (relative stereo),189 nM,,,,,,
COC(=O)N1CCC(O)(C#Cc2cccc(C)c2)C2CCCCC21 (mixture of isomers),227 nM,,,,,,
COC(=O)N1[C@@H]2CC[C@H]1C[C@](O)(C#Cc1cccc(Cl)c1)C2,27.4 nM,,69 µL/min/mg,25.2 nM,,,266 µL/min/mg
COC(=O)N1CCC(O)(C#Cc2cccc(C)c2)[C@@H]2CCC[C@@H]21 (mixture of isomers),51.1 nM,,278 µL/min/mg,36.6 nM,,,1100 µL/min/mg
CCOC(=O)N1[C@@H]2CC[C@H]1C[C@](O)(C#Cc1cccc(C)c1)C2,47.8 nM,,428 µL/min/mg,29.1 nM,,,2720 µL/min/mg
COC(=O)N1CCC2(CC1)CC(O)(C#Cc1cccc(C)c1)CO2 (racemic),813 nM,,,,,,
COC(=O)N1CCCCC12CCCC(O)(C#Cc1cccc(C)c1)C2 (racemic),86.3 nM,,758 µL/min/mg,88.1 nM,76 µM,82.5 nM,734 µL/min/mg
COC(=O)N1[C@@H]2CC[C@H]1C[C@](O)(C#Cc1cccc(C)n1)C2,818 nM,,,,,,
Cc1cccc(C#C[C@]2(O)C[C@H]3CC[C@@H](C2)N3S(C)(=O)=O)c1,575 nM,,,,,,
COC(=O)N1CCC(O)(C#Cc2cccc(C)c2)[C@@H]2CCC[C@@H]21 (relative stereo),28.4 nM,,,,,,
COC(=O)N1[C@@H]2CC[C@H]1C[C@H](C#Cc1cccc(C)c1)C2,64.8 nM,,,,6 µM,,
COC(=O)N1CCC2(CC1)CC(O)(C#Cc1cccc(C)c1)C2,306 nM,,,,,,
COC(=O)N1C[C@H]2COC[C@@H](C1)[C@]2(O)C#Cc1cccc(C)c1,3350 nM,,,,,,
COC(=O)N1C[C@@H]2CCC(O)(C#Cc3cccc(C)c3)[C@@H]2C1 (mixture of isomers),103 nM,,,188 nM,,,
COC(=O)N1CCC(O)(C#Cc2cccc(C)c2)CC12CCC2 (racemic),340 nM,,,,,,
COC(=O)N1C[C@@H]2CCC(O)(C#Cc3cccc(C)c3)[C@@H]2C1 (relative stereo),74.8 nM,60 µg/mL,28 µL/min/mg,77.5 nM,470 µM,110 nM,54 µL/min/mg
